ChEMBL document CHEMBL4017472, “New modified 2-aminobenzimidazole nucleosides: Synthesis and evaluation of their activity against herpes simplex virus type 1” (Bioorg Med Chem Lett, 2017)

How the values were obtained:
[1] = Selectivity index, ratio of MCC for African green monkey Vero E6 cells to IC50 for acyclovir-resistant HSV-1 L2 infected in African green monkey Vero E6 cells; set-up: species or system Vero C1008
Human alphaherpesvirus 1 [2] = test: Antiviral activity against acyclovir-resistant HSV-1 L2 infected in African green monkey Vero E6 cells assessed as reduction in virus-induced cytopathic effect; format: functional; settings: Human alphaherpesvirus 1, L2, Vero C1008
[3] = Selectivity index, ratio of MCC for African green monkey Vero E6 cells to IC50 for HSV-1 L2/Rp-ACV/2 infected in African green monkey Vero E6 cells; set-up: species or system Vero C1008
Human alphaherpesvirus 1 [4] = test: Antiviral activity against acyclovir and foscarnet-resistant HSV-1 L2 infected in African green monkey Vero E6 cells assessed as reduction in virus-induced cytopathic effect; format: functional; settings: Human alphaherpesvirus 1, L2, Vero C1008
Human alphaherpesvirus 1 [5] = test: Antiviral activity against acyclovir and cidofovir-resistant HSV-1 L2 infected in African green monkey Vero E6 cells assessed as reduction in virus-induced cytopathic effect; format: functional; settings: Human alphaherpesvirus 1, L2, Vero C1008
[6] = Selectivity index, ratio of MCC for African green monkey Vero E6 cells to IC50 for acyclovir and foscarnet-resistant HSV-1 L2 infected in African green monkey Vero E6 cells; set-up: species or system Vero C1008
Human alphaherpesvirus 1 [7] = test: Antiviral activity against HSV-1 L2/Rp-ACV/2 infected in African green monkey Vero E6 cells assessed as reduction in virus-induced cytopathic effect; format: functional; settings: Human alphaherpesvirus 1, L2/Rp-ACV/2, Vero C1008
Human alphaherpesvirus 1 [8] = test: Antiviral activity against foscarnet-resistant HSV-1 F+ infected in African green monkey Vero E6 cells assessed as reduction in virus-induced cytopathic effect; format: functional; settings: Human alphaherpesvirus 1, F+, Vero C1008
Human alphaherpesvirus 1 [9] = test: Antiviral activity against HSV1 L2 infected in African green monkey Vero E6 cells assessed as reduction in virus-induced cytopathic effect; format: functional; settings: Human alphaherpesvirus 1, L2, Vero C1008
[10] = Cytotoxicity against African green monkey Vero E6 cells measured after 3 days by trypan blue assay; format: cell-based, Vero C1008; settings: chlorocebus sabaeus
[11] = Selectivity index, ratio of MCC for African green monkey Vero E6 cells to IC50 for HSV-1 F+ infected in African green monkey Vero E6 cells; set-up: species or system Vero C1008
[12] = Selectivity index, ratio of MCC for African green monkey Vero E6 cells to IC50 for HSV-1 L2 infected in African green monkey Vero E6 cells; set-up: species or system Vero C1008
[13] = Selectivity index, ratio of MCC for African green monkey Vero E6 cells to IC50 for acyclovir and cidofovir-resistant HSV-1 L2 infected in African green monkey Vero E6 cells; set-up: species or system Vero C1008

Row | Compound | Selectivity Index [1] | IC50 (Human alphaherpesvirus 1 [2]) [µM] | IC95 (Human alphaherpesvirus 1 [2]) [µM] | Selectivity Index [3] | IC50 (Human alphaherpesvirus 1 [4]) [µM] | IC95 (Human alphaherpesvirus 1 [4]) [µM] | IC50 (Human alphaherpesvirus 1 [5]) [µM] | IC95 (Human alphaherpesvirus 1 [5]) [µM] | Selectivity Index [6] | IC50 (Human alphaherpesvirus 1 [7]) [µM] | IC95 (Human alphaherpesvirus 1 [7]) [µM] | IC50 (Human alphaherpesvirus 1 [8]) [µM] | IC95 (Human alphaherpesvirus 1 [8]) [µM] | IC50 (Human alphaherpesvirus 1 [9]) [µM] | IC95 (Human alphaherpesvirus 1 [9]) [µM] | MCC at 72 h [10] [µM] | Selectivity Index [11] | Selectivity Index [12] | Selectivity Index [13]
1 | O.O.O.O.O.O.O=C([O-])P(=O)([O-])[O-].[Na+].[Na+].[Na+] | 8 | 104 | 208 | 16 | 417 | > 833 | 104 | 208 | 2 | 52 | 104 | 833 | > 833 | 104 | 208 | 833 | 1 | 8 | 8
2 | Nc1ccn(C[C@@H](CO)OCP(=O)(O)O)c(=O)n1.O.O [CIDOFOVIR] | >26 | 14 | 55.9 | >204 | 7 | 27.9 | 112 | 895 | >51 | 1.8 | 27.9 | 27.9 | 448 | 14 | 55.9 | > 358 | >13 | >26 | >6.4
3 | Nc1nc2cc(F)c(F)cc2n1[C@H]1C[C@H](O)[C@@H](CO)O1 |  |  |  |  |  |  |  |  |  |  |  |  |  | 876 | 3510 | > 3500 |  | >4 | 
4 | Nc1nc2c(ncn2COCCO)c(=O)[nH]1 [ACYCLOVIR] | >1 | > 444 | > 444 | 16 | > 444 | > 444 | 17.3 | 139 | >1 | 27.8 | 111 | 3.5 | 13.9 | 1.73 | 6.9 | > 444 | >128 | >256 | >26
5 | CC(C)Nc1nc2cc(Cl)c(Cl)cc2n1[C@H]1O[C@@H](CO)[C@H](O)[C@@H]1O [MARIBAVIR] |  |  |  |  |  |  |  |  |  |  |  |  |  | 665 | > 665 | 665 |  | 1 | 
6 | NC(=O)c1ncn([C@@H]2O[C@H](CO)[C@@H](O)[C@H]2O)n1 [RIBAVIRIN] | >4 | 1020 | > 4100 | >4 | 1020 | > 4100 | 1020 | > 4100 | >4 | 1020 | > 4100 |  | > 4100 | 512 | 2050 | > 4100 | >4 | >8 | >4
